Results as given in US10214512B2, “Factor XIA inhibitors” (MERCK SHARP & DOHME CORP., priority 2015, dated 2019).

Legend:
[1] = molecular target: purified Human plasma Kallikrein (Homo sapiens (Human), UniProt P03952); assay: Kallikrein Assay; format: biochemical; details: purified Human plasma Kallikrein 0.5 nM; substrate Acetyl-K-P-R-AFC; 50 mM HEPES pH 7.4; Ki from IC50 by Cheng Prusoff
In short: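 Purified human plasma kallikrein (0.5 nM) with fluorogenic Ac-K-P-R-AFC ([…]) in 50 mM HEPES pH 7.4, 150 mM NaCl, 5 mM CaCl2, 0.1% PEG 8000, at rt or 37 °C. Substrate hydrolysis rate read with and without inhibitor; IC50 from four-parameter logistic fit, converted to Ki by Cheng–Prusoff.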

[2] = molecular target: purified human Factor XIa (Homo sapiens (Human), UniProt P03951); assay: Factor XIa Assay; format: biochemical; details: purified human Factor XIa 40 pM; substrate Z-Gly-Pro-Arg-AFC 100 μM; 50 mM HEPES pH 7.4; read-out: Human FXIa Ki
In short: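 Ki obtained from the dependence of uninhibited/inhibited initial-velocity ratio on inhibitor concentration, under a competitive-inhibition model. Reactions used 100 μM Z-Gly-Pro-Arg-AFC and 40 pM final human Factor XIa in pH 7.4 HEPES buffer with NaCl, CaCl2 and PEG 8000; run at rt or 37° C following pre-equilibration.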

Chain of purified Human plasma Kallikrein (P03952 391-638): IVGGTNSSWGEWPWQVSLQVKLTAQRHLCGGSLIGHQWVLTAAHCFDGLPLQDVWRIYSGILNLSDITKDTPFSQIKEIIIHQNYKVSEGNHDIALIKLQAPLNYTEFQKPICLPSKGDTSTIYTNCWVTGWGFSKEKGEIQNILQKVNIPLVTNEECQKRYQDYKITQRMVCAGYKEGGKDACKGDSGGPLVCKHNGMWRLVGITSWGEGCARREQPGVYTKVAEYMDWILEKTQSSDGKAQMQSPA
Chain of purified Human plasma Kallikrein (P03952 20-390 partner): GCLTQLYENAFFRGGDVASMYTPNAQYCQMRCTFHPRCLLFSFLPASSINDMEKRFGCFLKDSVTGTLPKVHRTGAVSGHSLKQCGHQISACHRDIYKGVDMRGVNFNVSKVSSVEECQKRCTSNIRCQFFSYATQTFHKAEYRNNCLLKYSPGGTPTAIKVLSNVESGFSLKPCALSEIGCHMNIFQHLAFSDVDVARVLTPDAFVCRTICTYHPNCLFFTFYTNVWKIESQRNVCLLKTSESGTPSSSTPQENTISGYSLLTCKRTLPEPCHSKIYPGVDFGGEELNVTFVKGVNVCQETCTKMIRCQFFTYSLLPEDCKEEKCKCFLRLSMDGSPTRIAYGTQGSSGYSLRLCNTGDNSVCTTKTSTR
Chain of purified human Factor XIa (P03951 388-625): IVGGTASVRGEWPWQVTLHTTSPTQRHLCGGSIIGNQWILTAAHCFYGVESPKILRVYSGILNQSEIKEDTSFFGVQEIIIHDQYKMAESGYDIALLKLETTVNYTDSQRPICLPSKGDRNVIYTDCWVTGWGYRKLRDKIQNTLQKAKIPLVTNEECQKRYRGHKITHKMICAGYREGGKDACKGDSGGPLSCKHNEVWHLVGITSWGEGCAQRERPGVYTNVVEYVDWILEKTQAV
Chain of purified human Factor XIa (P03951 19-387 partner): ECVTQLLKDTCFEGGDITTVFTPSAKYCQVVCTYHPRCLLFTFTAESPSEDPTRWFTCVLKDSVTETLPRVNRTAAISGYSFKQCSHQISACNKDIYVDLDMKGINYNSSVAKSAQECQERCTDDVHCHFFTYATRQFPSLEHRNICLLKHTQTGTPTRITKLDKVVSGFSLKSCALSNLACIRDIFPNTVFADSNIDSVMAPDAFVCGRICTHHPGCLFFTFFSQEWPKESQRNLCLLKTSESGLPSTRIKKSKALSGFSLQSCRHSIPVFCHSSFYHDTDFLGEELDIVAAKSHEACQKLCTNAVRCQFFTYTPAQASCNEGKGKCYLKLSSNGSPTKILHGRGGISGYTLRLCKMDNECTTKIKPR

Row | Ki [1] | Ki [2] | Compound
1 | 1.89 nM | 0.53 nM | COC(=O)Nc1ccc2c(c1)NC(=O)C(C)CCCC(c1ccc(-c3c(F)ccc(Cl)c3F)c[n+]1[O-])c1cccc-2c1 (single isomer, unassigned) [Example 50-a, 5-(3-chloro-2,6-difluorophenyl)-2-(2^4-((methoxycarbonyl)amino)-5-methyl-4-oxo-3-aza-1(1,3),2(1,2)-dinenzenacyclononaphane-9-yl)pyridine 1-oxide]
2 | 2.95 nM | 0.83 nM | COC(=O)Nc1ccc2c(c1)NC(=O)CCCC[C@H](c1ccc(-c3cc(Cl)ccc3C(F)(F)F)c[n+]1[O-])c1cccc-2c1 (single isomer, unassigned) [Example 32]
3 | 1.43 nM | 0.32 nM | COC(=O)Nc1ccc2c(c1)NC(=O)CCCCC(c1ccc(-c3cc(Cl)ccc3-n3cnnn3)c[n+]1[O-])c1cc(F)cc-2c1 (stereo not shown) [Example 52, 5-(5-chloro-2-(1h-tetrazol-1-yl)phenyl)-2-(1^5-fluoro-2^4-((methoxycarbonyl)amino)-4-oxo-3-aza-1(1,3),2(1,2) -dinenzenacyclononaphane-9-yl)pyridine 1-oxide]
4 | 2.59 nM | 0.97 nM | COC(=O)Nc1cc(F)c2c(c1)NC(=O)C(C)CCCC(c1ccc(-c3c(F)ccc(Cl)c3F)c[n+]1[O-])c1cccc-2c1 (single isomer, unassigned) [Example 85-c, 5-(3-Chloro-2,6-difluorophenyl)-2-(2^6-fluoro-2^4-((methoxycarbonyl)amino)-5-methyl-4-oxo-3-aza-1(1,3),2(1,2)-dibenzenacyclononaphane-9-yl)pyridine 1-oxide]
5 | 5.94 nM | 0.22 nM | COC(=O)Nc1ccc2c(c1)NC(=O)CCCC[C@H](c1ccc(-c3cc(F)ccc3OC(F)(F)F)c[n+]1[O-])c1nc-2c(C)[nH]1 (single isomer, unassigned) [Example 132]
6 | 11.3 nM | 5.1 nM | COC(=O)Nc1ccc2c(c1)NC(=O)CCCCC(c1ccc(-c3c(F)ccc(Cl)c3F)c[n+]1[O-])c1cc[n+]([O-])c-2c1 (stereo not shown) [Example 94, 9-(5-(3-Chloro-2,6-difluorophenyl)-1-oxidopyridin-2-yl)-2^4-((methoxycarbonyl)amino)-4-oxo-3-aza-1(2,4)-pyridin-1-iuma-2(1,2) -benzenacyclononaphane 1-oxide]
7 | 6.27 nM | 0.19 nM | COC(=O)Nc1ccc2c(c1)NC(=O)CCCC[C@H](c1ccc(-c3cc(Cl)ccc3-n3cc(C#N)cn3)c[n+]1[O-])c1cccc-2c1 (single isomer, unassigned) [Example 41]
8 | 3.9 nM | 0.43 nM | COC(=O)Nc1ccc2c(c1)NC(=O)CCCC[C@H](c1ccc(-c3ccccc3C(F)(F)F)c[n+]1[O-])c1nc-2c(C)[nH]1 (single isomer, unassigned) [Example 121]
9 | 26 nM | 1.4 nM | COC(=O)Nc1ccc2c(c1)NC(=O)CCCCC(c1ccc(-c3cc(Cl)ccc3-n3cnnn3)cn1)c1cc-2c(F)cn1 (stereo not shown) [Example 61, methyl (9-(5-(5-chloro-2-(1h-tetrazol-1-yl)phenyl)pyridin-2-yl)-1^5-fluoro-4-oxo-3-aza-1(4,2)-pyridina-2(1,2)-benzenacyclononaphane-2^4-yl)carbamate]
10 | 2170 nM | 30.3 nM | O=C(C1CCCCC(c2ccc(-c3cc(Cl)ccc3-n3cnnn3)c[n+]2[O-])c2cccc(c2)-c2cc(F)ccc2N1)N1CCCC1 (single isomer, unassigned) [Example 79-d, 5-(5-Chloro-2-(1H-tetrazol-1-yl)phenyl)-2-(2^5-fluoro-4-(pyrrolidine-1-carbonyl)-3-aza-1(1,3),2(1,2)-dibenzenacyclononaphane-9-yl)pyridine 1-oxide]
11 | 1.29 nM | 6.34 nM | COC(=O)Nc1ccc2c(c1)NC(=O)C(C)CCCC(c1ccc(-c3c(F)ccc(Cl)c3F)c[n+]1[O-])c1ccc(F)c-2c1 (single isomer, unassigned) [Example 86-a, 5-(3-Chloro-2,6-difluorophenyl)-2-(1^6-fluoro-2^4-((methoxycarbonyl)amino)-5-methyl-4-oxo-3-aza-1(1,3),2(1,2) -dibenzenacyclononaphane-9-yl)pyridine 1-oxide]
12 | 4 nM | 0.47 nM | O=C1CCCCC(c2ccc(-c3cc(Cl)ccc3-n3cnnn3)c[n+]2[O-])c2c[nH]c(n2)-c2cc(F)ccc2N1 (racemic) [Example 160, (Z)-5-(5-chloro-2-(1H-tetrazol-1-yl)phenyl)-2-(2^5-fluoro-4-oxo-1^1H-3-aza-1(2,4)-imidazola-2(1,2)-benzenacyclononaphane-9-yl)pyridine 1-oxide]
13 | 0.34 nM | 0.19 nM | COC(=O)Nc1ccc2c(c1)NC(=O)CCCCC(c1ccc(-c3c(F)ccc(Cl)c3F)c[n+]1[O-])c1nc-2c(C)[nH]1 (single isomer, unassigned) [Example 111-a, (Z)-5-(3-chloro-2,6-difluorophenyl)-2-(2^4-((methoxycarbonyl)amino)-1^5-methyl-4-oxo-1^1H-3-aza-1(4,2)-imidazola-2(1,2) -benzenacyclononaphane-9-yl)pyridine 1-oxide]
14 | 6 nM | 2.9 nM | COC(=O)Nc1ccc2c(c1)NC(=O)CCCCC(c1ccc(-c3cc(Cl)ccc3-n3cnnn3)cn1)c1cc-2ncn1 (stereo not shown) [Example 65, methyl (9-(5-(5-chloro-2-(1h-tetrazol-1-yl)phenyl)pyridin-2-yl)-4-oxo-3-aza-1(4,6)-pyrimidina-2(1,2)-benzenacyclononaphane-2^4-yl)carbamate]
15 | 6.77 nM | 0.38 nM | COC(=O)Nc1ccc2c(c1)NC(=O)CCCC[C@H](c1ccc(-c3cc(Cl)ccc3OC(F)(F)F)c[n+]1[O-])c1cccc-2c1 (single isomer, unassigned) [Example 30]
16 | 13.6 nM | 0.39 nM | O=C1CCCCC(c2ccc(-c3cc(F)ccc3-n3cnnn3)c[n+]2[O-])c2cccc(c2)-c2cc(F)ccc2N1 (single isomer, unassigned) [Example 89-a, 5-(5-fluoro-2-(1H-tetrazol-1-yl)phenyl)-2-(2^5-fluoro-4-oxo-3-aza-1(1,3),2(1,2)-dibenzenacyclononaphane-9-yl)pyridine 1-oxide]
17 | 2.09 nM | 0.37 nM | O=C1CCCCC(c2ccc(-c3cc(Cl)ccc3-n3cnnn3)c[n+]2[O-])c2ccnc(c2)-c2cc(F)ccc2N1 (stereo not shown) [Example 70, 5-(5-chloro-2-(1H-tetrazol-1-yl)phenyl)-2-(2^5-fluoro-4-oxo-3-aza-1(2,4)-pyridina-2(1,2)-benzenacyclononaphane-9-yl)pyridine 1-oxide]
18 | 2.04 nM | 0.45 nM | COC(=O)Nc1ccc2c(c1)NC(=O)CC1CC1CC(c1ccc(-c3c(C(F)F)ccc(Cl)c3F)c[n+]1[O-])c1nc-2c(C)[nH]1 (racemic) [Example 157]
19 | 1.39 nM | 0.14 nM | C[C@@H]1CCC[C@H](c2ccc(-c3cc(Cl)ccc3-n3cc(Cl)nn3)c[n+]2[O-])c2cccc(c2)-c2c(cnn2C(F)F)NC1=O (single isomer, unassigned) [Example 166-a]
20 | 376 nM | 1.37 nM | O=C1CCCC[C@H](c2ccc(-c3cc(Cl)ccc3-n3cc(C(F)(F)F)cn3)c[n+]2[O-])c2cccc(c2)-c2c(cnn2C(F)F)N1 (single isomer, unassigned) [Example 167]
21 | 1.68 nM | 0.54 nM | COC(=O)Nc1ccc2c(c1)NC(=O)CCCC[C@H](c1ccc(-c3c(F)cccc3F)c[n+]1[O-])c1nc-2c(C)[nH]1 (single isomer, unassigned) [Example 119]
22 | 238 nM | 2.4 nM | O=C1CCCCC(c2ccc(-c3cc(Cl)cc(F)c3-n3cnnn3)c[n+]2[O-])c2cccc(c2)-c2cc(F)ccc2N1 (single isomer, unassigned) [Example 7-a, 5-(5-chloro-3-fluoro-2-(1H-tetrazol-1-yl)phenyl)-2-(2^5-fluoro-4-oxo-3-aza-1(1,3),2(1,2)-dibenzenacyclononaphane-9-yl)pyridine 1-oxide]
23 | 1.35 nM | 0.55 nM | O=C1CCCCC(c2ccc(-c3c(-n4cnnn4)ccc(Cl)c3F)c[n+]2[O-])c2c[nH]c(n2)-c2cc(F)ccc2N1 (racemic) [Example 161, (Z)-5-(3-chloro-2-fluoro-6-(1H-tetrazol-1-yl)phenyl)-2-(2^5-fluoro-4-oxo-1^1H-3-aza-1(2,4)-imidazola-2(1,2)-benzenacyclononaphane-9-yl)pyridine 1-oxide]
24 | 1.85 nM | 0.38 nM | CC1CCCC(c2ccc(-c3cc(Cl)ccc3-n3cnnn3)c[n+]2[O-])c2cccc(c2)-c2ccc(C#N)cc2NC1=O (stereo not shown) [Example 84, 5-(5-chloro-2-(1H-tetrazol-1-yl)phenyl)-2-(2^4-cyano-5-Methyl-4-OXO-3-aza-1(1,3), 2(1,2)-dinenzenacyclononaphane-9-yl)pyridine 1-oxide]
25 | 3.5 nM | 0.66 nM | COC(=O)Nc1ccc2c(c1)NC(=O)CC1CC1CC(c1ccc(-c3c(OC(F)F)ccc(Cl)c3F)c[n+]1[O-])c1nc-2c(C)[nH]1 (racemic) [Example 159]
26 | 82.8 nM | 0.49 nM | COC(=O)Nc1ccc2c(c1)NC(=O)CCCC[C@H](c1ccc(-c3cc(Cl)ccc3-n3cc(C)cn3)c[n+]1[O-])c1nc-2c(C)[nH]1 (single isomer, unassigned) [Example 141]
